Laboratory results reported in patent US8535903B2, “Nitroreductase enzymatic substrates” (BioMerieux, S.A., priority 2009, dated 2013).

Legend:
Assay in all cases: Detection of nitroreductase activity on Columbia medium with substrate
Assay type in all cases: cell-based
Conditions in all cases: 24 hours at 37° C.
[1] = tested on: Escherichia coli NCTC 10 418; parameters: key to Growth: NG: no growth; 0.5: low growth; 1: moderate growth; 2: good growth; key to Col. (color of the colonies): —: no color/fluorescence
Method: (§1) 40 mg of substrate were dissolved in 4 ml of dimethylsulfoxide and added to 400 ml of previously autoclaved Columbia medium. The medium was distributed in Petri dishes 90 mm in diameter at the rate of 20 ml per dish. Seventeen strains of microorganisms obtained from collections and belonging to various species of bacteria and yeasts are inoculated as spots of about 10 000 colony forming units. The media are incubated for 24 hours at 37° C. and then the colonies formed are examined visually and under a UV lamp at 365 nm.

[2] = tested on: Enterobacter cloacae NCTC 11 936; parameters: key to Growth: NG: no growth; 0.5: low growth; 1: moderate growth; 2: good growth; key to Col. (color of the colonies): —: no color/fluorescence
Method: as §1

[3] = tested on: Providencia rettgeri NCTC 7 475; parameters: key to Growth: NG: no growth; 0.5: low growth; 1: moderate growth; 2: good growth; key to Col. (color of the colonies): —: no color/fluorescence
Method: as §1

[4] = tested on: Serratia marcescens NCTC 10 211; parameters: key to Growth: NG: no growth; 0.5: low growth; 1: moderate growth; 2: good growth; key to Col. (color of the colonies): —: no color/fluorescence
Method: as §1

[5] = tested on: Bacillus subtilis NCTC 9 372; parameters: key to Growth: NG: no growth; 0.5: low growth; 1: moderate growth; 2: good growth; key to Col. (color of the colonies) / Fluo. (fluorescence of the colonies): —: no color/fluorescence
Method: as §1

[6] = tested on: Staphylococcus aureus NCTC 11 939; parameters: key to Growth: NG: no growth; 0.5: low growth; 1: moderate growth; 2: good growth; key to Col. (color of the colonies) / Fluo. (fluorescence of the colonies): —: no color/fluorescence
Method: as §1

[7] = tested on: Candida glabrata NCPF 3 943; parameters: key to Growth: NG: no growth; 0.5: low growth; 1: moderate growth; 2: good growth; key to Col. (color of the colonies) / Fluo. (fluorescence of the colonies): —: no color/fluorescence
Method: as §1

[8] = tested on: Yersinia enterocolitica NCTC 11 176; parameters: key to Growth: NG: no growth; 0.5: low growth; 1: moderate growth; 2: good growth; key to Col. (color of the colonies) / Fluo. (fluorescence of the colonies): —: no color/fluorescence
Method: as §1

[9] = tested on: Staphylococcus aureus NCTC 6 571; parameters: key to Growth: NG: no growth; 0.5: low growth; 1: moderate growth; 2: good growth; key to Col. (color of the colonies) / Fluo. (fluorescence of the colonies): —: no color/fluorescence
Method: as §1

[10] = tested on: Candida albicans ATCC 90 028; parameters: key to Growth: NG: no growth; 0.5: low growth; 1: moderate growth; 2: good growth; key to Col. (color of the colonies) / Fluo. (fluorescence of the colonies): —: no color/fluorescence
Method: as §1

[11] = tested on: Salmonella typhimurium NCTC 74; parameters: key to Growth: NG: no growth; 0.5: low growth; 1: moderate growth; 2: good growth; key to Col. (color of the colonies) / Fluo. (fluorescence of the colonies): —: no color/fluorescence
Method: as §1

[12] = tested on: Enterococcus faecium NCTC 7 171; parameters: key to Growth: NG: no growth; 0.5: low growth; 1: moderate growth; 2: good growth; key to Col. (color of the colonies) / Fluo. (fluorescence of the colonies): —: no color/fluorescence
Method: as §1

[13] = tested on: Pseudomonas aeruginosa NCTC 10 662; parameters: key to Growth: NG: no growth; 0.5: low growth; 1: moderate growth; 2: good growth; key to Col. (color of the colonies) / Fluo. (fluorescence of the colonies): —: no color/fluorescence
Method: as §1

[14] = tested on: Streptococcus pyogenes NCTC 8 306; parameters: key to Growth: NG: no growth; 0.5: low growth; 1: moderate growth; 2: good growth; key to Col. (color of the colonies) / Fluo. (fluorescence of the colonies): —: no color/fluorescence
Method: as §1

[15] = tested on: Listeria monocytogenes NCTC 11 994; parameters: key to Growth: NG: no growth; 0.5: low growth; 1: moderate growth; 2: good growth; key to Col. (color of the colonies) / Fluo. (fluorescence of the colonies): —: no color/fluorescence
Method: as §1

[16] = tested on: Enterococcus faecalis NCTC 775; parameters: key to Growth: NG: no growth; 0.5: low growth; 1: moderate growth; 2: good growth; key to Col. (color of the colonies) / Fluo. (fluorescence of the colonies): —: no color/fluorescence
Method: as §1

[17] = tested on: Staphylococcus epidermidis NCTC 11 047; parameters: key to Growth: NG: no growth; 0.5: low growth; 1: moderate growth; 2: good growth; key to Col. (color of the colonies) / Fluo. (fluorescence of the colonies): —: no color/fluorescence
Method: as §1

[18] = 40 mg substrate in 400 ml Columbia medium

O=[N+]([O-])c1ccc(C=Cc2ccncc2)cc1 [4NSP, 4,4′-Nitrostyrylpyridine] was tested, and the Growth [1, 18] was 2, the “Fluo. (fluorescence of the colonies)” value ([1]; UV lamp at 365 nm) was “Yellow” and the “Col. (color of the colonies)” value ([1]; examined visually) was “—”. The Growth [2, 18] was 2, the “Fluo. (fluorescence of the colonies)” value ([2]; UV lamp at 365 nm) was “Yellow” and the “Col. (color of the colonies)” value ([2]; examined visually) was “—”. For the same compound, the Growth [3, 18] was 2, the “Fluo. (fluorescence of the colonies)” value ([3]; UV lamp at 365 nm) was “Pale yellow” and the “Col. (color of the colonies)” value ([3]; examined visually) was “—”. For the same compound, the Growth [4, 18] was 2, the “Fluo. (fluorescence of the colonies)” value ([4]; UV lamp at 365 nm) was “Yellow” and the “Col. (color of the colonies)” value ([4]; examined visually) was “—”. The Growth [5, 18] was “NG”, the “Fluo. (fluorescence of the colonies)” value ([5]; UV lamp at 365 nm) was “—” and the “Col. (color of the colonies)” value ([5]; examined visually) was “—”. For the same compound, the Growth [6, 18] was 1, the “Fluo. (fluorescence of the colonies)” value ([6]; UV lamp at 365 nm) was “—” and the “Col. (color of the colonies)” value ([6]; examined visually) was “—”. For the same compound, the Growth [7, 18] was 1, the “Fluo. (fluorescence of the colonies)” value ([7]; UV lamp at 365 nm) was “—” and the “Col. (color of the colonies)” value ([7]; examined visually) was “—”. The Growth [8, 18] was 2, the “Fluo. (fluorescence of the colonies)” value ([8]; UV lamp at 365 nm) was “—” and the “Col. (color of the colonies)” value ([8]; examined visually) was “—”. The Growth [9, 18] was 1, the “Fluo. (fluorescence of the colonies)” value ([9]; UV lamp at 365 nm) was “—” and the “Col. (color of the colonies)” value ([9]; examined visually) was “—”. The Growth [10, 18] was “NG”, the “Fluo. (fluorescence of the colonies)” value ([10]; UV lamp at 365 nm) was “—” and the “Col. (color of the colonies)” value ([10]; examined visually) was “—”. For the same compound, the Growth [11, 18] was 0.5, the “Fluo. (fluorescence of the colonies)” value ([11]; UV lamp at 365 nm) was “—” and the “Col. (color of the colonies)” value ([11]; examined visually) was “—”. The Growth [12, 18] was 1, the “Fluo. (fluorescence of the colonies)” value ([12]; UV lamp at 365 nm) was “—” and the “Col. (color of the colonies)” value ([12]; examined visually) was “—”. For the same compound, the Growth [13, 18] was 2, the “Fluo. (fluorescence of the colonies)” value ([13]; UV lamp at 365 nm) was “—” and the “Col. (color of the colonies)” value ([13]; examined visually) was “—”. The Growth [14, 18] was 1, the “Fluo. (fluorescence of the colonies)” value ([14]; UV lamp at 365 nm) was “—” and the “Col. (color of the colonies)” value ([14]; examined visually) was “—”. The Growth [15, 18] was 1, the “Fluo. (fluorescence of the colonies)” value ([15]; UV lamp at 365 nm) was “—” and the “Col. (color of the colonies)” value ([15]; examined visually) was “—”. The Growth [16, 18] was 1, the “Fluo. (fluorescence of the colonies)” value ([16]; UV lamp at 365 nm) was “—” and the “Col. (color of the colonies)” value ([16]; examined visually) was “—”. For the same compound, the Growth [17, 18] was 0.5, the “Fluo. (fluorescence of the colonies)” value ([17]; UV lamp at 365 nm) was “—” and the “Col. (color of the colonies)” value ([17]; examined visually) was “—”.
